Columns and labels:
[1] = pKa value was measured; assay type: physicochemical
[2] = target: Glutamate receptor ionotropic, NMDA 1 (Rattus norvegicus, UniProt P35439); experiment: Inhibition of binding affinity of [3H]L-689,560 to the strychnine insensitive glycine site on rat brain membranes; assay type: cell membranes, Membrane
Rattus norvegicus = species: Rattus norvegicus; experiment: Inhibition of N-Methyl-D-aspartate (NMDA)-induced depolarizations in rat cortical slices; assay type: functional
[3] = target: Glutamate receptor ionotropic, NMDA 1 (Rattus norvegicus) (UniProt P35439); experiment: Inhibition of binding affinity of [3H]L-689,560 to the strychnine insensitive glycine site on rat brain membranes at a concentration of 100 uM; assay type: cell membranes; settings: Membrane

With `O=c1cc(O)c2ccc(Cl)cc2[nH]1` the pKa [1] was 5.8.
`O=C1N/C(=C\C2CC2)C(O)=C1c1ccccc1` gave an IC50 [2] of 9.5 µM.
Molecule `CCC/C=C1\NC(=O)C(c2ccccc2)=C1O` has a Kb (Rattus norvegicus) of 154 µM and an IC50 [2] of 15.7 µM.
In the case of `O=C1N/C(=C/C2CC2)C(O)=C1c1ccccc1`, the inhibition [3] is reported as 18%.
`O=C1C=C(O)CN1` showed a pKa [1] of 6.4.
Work on `CC/C=C1/NC(=O)C(c2ccccc2)=C1O` yielded a pKa [1] of 4.6, a Kb (Rattus norvegicus) of 115 µM and an IC50 [2] of 45.5 µM.
For `O=C1N/C(=C\c2ccccc2)C(O)=C1c1ccccc1`, the IC50 [2] was 24.2 µM.
Molecule `CC/C=C1/NC(=O)C(c2cccc(Oc3ccccc3)c2)=C1O` has a Kb (Rattus norvegicus) of 6.15 µM and an IC50 [2] of 0.7 µM.
`C=C(C)COc1cccc(C2=C(O)/C(=C\CC)NC2=O)c1` gave a Kb (Rattus norvegicus) of 15.8 µM and an IC50 [2] of 3 µM.

From ChEMBL document CHEMBL1128659, “Tetramic acids as novel glycine site antagonists” (Bioorg Med Chem Lett, 1995)
